Reference: patent publication US9346794B1, “Substituted 4-pyridones and their use as inhibitors of neutrophil elastase activity” (Boehringer Ingelheim International GmbH, priority 2012, dated 2016)

Molecular target: Human neutrophil elastase (Homo sapiens (Human), UniProt P08246)
Test: Human Neutrophil Elastase Assay
Assay type: biochemical
Conditions: substrate MeOSuc-Ala-Ala-Pro-Val-AMC 250 μM, fluorescence, pH 7.5
Protocol: Human Neutrophil Elastase Assay
All other materials were of the highest grade commercially available.
The following buffers were used: Compound buffer: 100 mM Tris, 500 mM NaCl, adjusted to pH 7.5; Assay buffer: 100 mM Tris, 500 mM NaCl, adjusted to pH 7.5, containing 0.01% BSA.
Assay conditions: Test compounds were prediluted in DMSO and subsequently in compound buffer (5% DMSO final). […] After inactivation of the enzyme, fluorescence intensities were measured at 380 nm excitation and 460 nm emission wavelengths.
Each plate contains wells with a high value control (DMSO+enzyme+substrate) and wells with a low value control (DMSO+inactivated enzyme+substrate). IC50 values were estimated using a sigmoidal concentration response curve with variable slope. Means of low values were taken as 0%, means of high values as 100%. IC50 values of selected compound in the Neutrophil Elastase assay: […]

Human neutrophil elastase, sequence (P08246 30-247): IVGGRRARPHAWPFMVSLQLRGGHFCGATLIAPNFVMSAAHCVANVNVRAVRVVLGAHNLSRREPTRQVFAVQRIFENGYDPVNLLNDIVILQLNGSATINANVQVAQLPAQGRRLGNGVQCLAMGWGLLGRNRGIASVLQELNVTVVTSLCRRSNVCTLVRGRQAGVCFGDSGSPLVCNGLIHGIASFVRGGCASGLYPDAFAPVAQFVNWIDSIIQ

Compound | IC50 [nM]
Cc1c(-c2cccc(C(F)(F)F)c2)c(=O)c(C(=O)NCc2ccc(S(C)(=O)=NC#N)cn2)cn1C(C)C (stereo not shown) [Example 16, 5-(3-trifluoromethyl-phenyl)-1-isopropyl-6-methyl-4-oxo-1,4-dihydro-pyridine-3-carboxylic acid (5-(N-cyano-S-methylsulfonimidoyl)pyridin-2-yl)methylamide] | 1.9
Cc1c(-c2ccnc(C(F)(F)F)c2)c(=O)c(C(=O)NCc2ccc(S(C)(=O)=NC#N)cc2)cn1C(C)C (single isomer, unassigned) [Example 3A, 1-Isopropyl-2-methyl-4-oxo-2′-trifluoromethyl-1,4-dihydro-[3,4′]-bipyridinyl-5-carboxylic acid 4-(N-cyano-S-methylsulfonimidoyl)-benzylamide] | 12
Cc1ccc(-n2cc(C(=O)NCc3ccc(S(C)(=O)=NC#N)cc3)c(=O)c(-c3cccc(C(F)(F)F)c3)c2C)cn1 (stereo not shown) [Example 58] | 4.7
Cc1c(-c2cccc(C(F)(F)F)c2)c(=O)c(C(=O)NCc2ccc(S(C)(=O)=NC#N)cc2)cn1-c1ccccc1 (single isomer, unassigned) [Example 24] | 5.5
Cc1c(-c2cccc(C(F)(F)F)c2)c(=O)c(C(=O)NCc2ccc(S(C)(=O)=NC#N)cc2)cn1C1CCOCC1 (stereo not shown) [Example 53] | 2.3
CCn1cc(C(=O)NCc2ccc(S(=O)(CC)=NC#N)cc2)c(=O)c(-c2cccc(C(F)F)c2)c1C (stereo not shown) [Example 29] | 1.5
Cc1cc(CNC(=O)c2cn(C(C)C)c(C)c(-c3cccc(C(F)(F)F)c3)c2=O)ccc1S(C)(=O)=NC#N (stereo not shown) [Example 66, 1-Isopropyl-6-methyl-4-oxo-5-(3-trifluoromethyl-phenyl)-1,4-dihydro-pyridine-3-carboxylic acid 3-methyl-4-(N-cyano-S-methylsulfonimidoyl)-benzylamide] | 3.4
Cc1c(-c2cccc(C(F)F)c2)c(=O)c(C(=O)NCc2ccc(S(C)(=O)=NC#N)cc2)cn1-c1cccnc1 (single isomer, unassigned) [Example 39] | 3.7
Cc1c(-c2cccc(C(F)(F)F)c2)c(=O)c(C(=O)NCc2ccc(S(C)(=O)=NC#N)cc2)cn1-c1cccnc1 (single isomer, unassigned) [Example 26] | 3.3
CCn1cc(C(=O)NCc2ccc(S(C)(=O)=NC#N)cc2)c(=O)c(-c2cccc(C(F)(F)F)c2)c1C (single isomer, unassigned) [Example 4B, 1-Ethyl-6-methyl-4-oxo-5-(3-trifluoromethyl-phenyl)-1,4-dihydro-pyridine-3-carboxylic acid 4-(N-cyano-S-methylsulfonimidoyl)-benzylamide] | 1.6
Cc1cc(S(C)(=O)=NC#N)ccc1CNC(=O)c1cn(C(C)C)c(C)c(-c2cccc(C(F)F)c2)c1=O (stereo not shown) [Example 34] | 2.4
Cc1c(-c2cccc(C(F)(F)F)c2)c(=O)c(C(=O)NCc2ccc(S(C)(=O)=NC#N)c[n+]2[O-])cn1C(C)C (stereo not shown) [Example 62, 5-(3-Trifluoromethyl-phenyl)-1-isopropyl-6-methyl-4-oxo-1,4-dihydro-pyridine-3-carboxylic acid (5-(N-cyano-S-methylsulfonimidoyl)-1-oxy-pyridin-2-yl)-methylamide] | 2.7
CCS(=O)(=NC#N)c1ccc(CNC(=O)c2cn(C(C)C)c(C)c(-c3cccc(C(F)F)c3)c2=O)cc1 (stereo not shown) [Example 31] | < 1
Cc1c(-c2cccc(C(F)F)c2)c(=O)c(C(=O)NCc2ccc(S(=O)(=NC#N)C(C)C)cc2)cn1-c1ccnn1C (stereo not shown) [Example 37] | < 1
CCn1cc(C(=O)NCc2ccc(S(=O)(=NC#N)C(C)C)cc2)c(=O)c(-c2cccc(C(F)F)c2)c1C (stereo not shown) [Example 30] | < 1
CN=S(C)(=O)c1ccc(CNC(=O)c2cn(C(C)C)c(C)c(-c3cccc(C(F)(F)F)c3)c2=O)cc1 (stereo not shown) [Example 67, 1-Isopropyl-6-methyl-4-oxo-5-(3-trifluoromethyl-phenyl)-1,4-dihydro-pyridine-3-carboxylic acid 4-(N,S-dimethylsulfonimidoyl)-benzylamide] | 49.3
Cc1c(-c2cccc(C(F)F)c2)c(=O)c(C(=O)NCc2ccc(S(C)(=O)=NC#N)cc2F)cn1C(C)C (stereo not shown) [Example 33] | 2.5
CCS(=O)(=NC#N)c1ccc(CNC(=O)c2cn(-c3ccnn3C)c(C)c(-c3cccc(C(F)(F)F)c3)c2=O)cc1 (stereo not shown) [Example 18] | 1.5
Cc1c(-c2cccc(C(F)(F)F)c2)c(=O)c(C(=O)NCc2ccc(S(C)(=O)=NC#N)cc2)cn1-c1ccccn1 (single isomer, unassigned) [Example 25] | 4.3
Cc1c(-c2ccc(F)c(C(F)(F)F)c2)c(=O)c(C(=O)NCc2ccc(S(C)(=O)=NC#N)cc2)cn1C(C)C (single isomer, unassigned) [Example 41] | 1.8
CCn1cc(C(=O)NCc2ccc(S(C)(=O)=NC#N)cc2)c(=O)c(-c2cccc(C(F)(F)F)c2)c1C (racemic) [Example 4, 1-Ethyl-6-methyl-4-oxo-5-(3-trifluoromethyl-phenyl)-1,4-dihydro-pyridine-3-carboxylic acid 4-(N-cyano-S-methylsulfonimidoyl)-benzylamide] | 3
Cc1c(-c2ccnc(C(F)(F)F)c2)c(=O)c(C(=O)NCc2ccc(S(C)(=O)=NC#N)cc2)cn1-c1ccncc1 (single isomer, unassigned) [Example 46] | 11.7
